Data taken from patent US20020072051A1, “Screen for identifying inhibitors of GPI anchoring” (priority 2000, published 2002).

Experiments:
UPR pathway = assay: UPRE::lacZ reporter induction screen (primary assay); type: cell-based, Saccharomyces cerevisiae; conditions: yeast cells containing 3X UPRE-CYClMINlacz, S. cerevisiae Δmdr mutant
From the text: Several UPRE::lacz reporter plasmids were constructed and used to transform a S. cerevisiae Δ mdr mutant and the transformants assessed for their ability to selectively respond to tunicamycin. The reporter sequence 3X UPRE-CYClMINlacz (FIG. 2) provided a selective, sensitive, and robust screening response to tunicamycin treatment and was selected for use in the Very High Throughput Screen (vHTS; Example 2). […] The activity of an associated β-galactosidase reporter gene thus served as an indirect signal of UPR-pathway stimulation.
The yeast strains were diploid Δmdr mutants of Saccharomyces cerevisiae: MMB 1663 (3XUPRE CYClMIN::lacz). Yeast glycerol stocks were prepared by culturing MMB 1663 (3XUPRE CYClMIN::lacZ) overnight to an OD 600 nm of 0.500. The culture was concentrated by centrifugation at 1000×g for 10 minutes and the pellet resuspended in fresh medium to an OD 600 nm of 1.00. An equal volume of HR Medium with 50% glycerol was added, producing a suspension of cells with an OD 600 nm of 0.500 and a final concentration of 25% glycerol. […]
4. […] (Packard TopSeal-A Plate Tape is not required for either plate reader when volumes are ≦50 μl for 384-well or ≦200 μl for 96-well plates).
5. After 90 minutes, β-galactosidase activity was read, using a 90 to 240 minute window. […]

[1] = system: MCD4 catalyzed step in the GPI-anchor biosynthesis pathway; conditions: cited from earlier work
GPI anchor biosynthesis = assay: in-vitro GPI anchor biosynthesis assay; type: biochemical; conditions: UDP-[3H]-GlcNAc, ATP, Coenzyme A, GDP-mannose; TLC
From the text: Crude lysate from hypotonic lysing of spheroplasts as well as microsomal preparations can be used as an enzyme source for a coupled in vitro assay. Addition of UDP-[^3H]-GlcNAc, ATP, Coenzyme A and GDP-mannose provides the necessary substrates to synthesize a complete precursor from endogenous PI and fatty acid.

Mcd4p = target: T1, Mcd4p (Saccharomyces cerevisiae, UniProt P36051); assay: MCD4 overexpression and inositol-labeling experiments in mcd4-174; type: cell-based; conditions: MCD4 overexpression; mcd4-174 mutant strain
T1 construct: overexpressed by cloning the gene under the control of its endogenous promoter in 2 micron (multi-copy) vectors; expressed in transfected cells; host or cells: yeast (S. cerevisiae) cells carrying MCD4 on a 2 micron multi-copy vector; also the mcd4-174 mutant strain for inositol labelling
T1 sequence (P36051 1-919): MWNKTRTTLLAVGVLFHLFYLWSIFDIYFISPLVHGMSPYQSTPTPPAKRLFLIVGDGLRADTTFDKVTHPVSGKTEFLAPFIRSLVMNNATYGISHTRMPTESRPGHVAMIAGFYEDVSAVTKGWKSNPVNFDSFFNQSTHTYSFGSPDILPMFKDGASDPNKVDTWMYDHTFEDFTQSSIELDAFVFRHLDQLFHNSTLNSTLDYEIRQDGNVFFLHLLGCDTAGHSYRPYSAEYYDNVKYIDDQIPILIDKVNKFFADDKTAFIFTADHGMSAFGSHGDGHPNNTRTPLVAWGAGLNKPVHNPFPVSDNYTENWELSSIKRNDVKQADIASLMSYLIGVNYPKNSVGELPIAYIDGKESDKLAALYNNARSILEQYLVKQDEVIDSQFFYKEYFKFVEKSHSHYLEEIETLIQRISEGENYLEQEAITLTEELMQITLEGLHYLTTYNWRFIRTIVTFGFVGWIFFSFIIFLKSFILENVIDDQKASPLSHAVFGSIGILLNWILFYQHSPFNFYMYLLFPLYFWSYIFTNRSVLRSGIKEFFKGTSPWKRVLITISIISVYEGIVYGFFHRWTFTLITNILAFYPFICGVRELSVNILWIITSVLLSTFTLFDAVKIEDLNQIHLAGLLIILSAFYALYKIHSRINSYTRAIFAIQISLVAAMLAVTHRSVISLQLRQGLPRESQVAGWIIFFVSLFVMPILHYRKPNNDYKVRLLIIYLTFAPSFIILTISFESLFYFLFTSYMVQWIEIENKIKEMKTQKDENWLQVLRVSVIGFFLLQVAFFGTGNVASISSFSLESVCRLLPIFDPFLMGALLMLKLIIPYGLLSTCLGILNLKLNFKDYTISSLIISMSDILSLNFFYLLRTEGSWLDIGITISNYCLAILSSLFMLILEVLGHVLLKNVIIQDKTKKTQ
From the text: An overexpression resistance (OER) assay was employed to determine the cellular target of compounds isolated via the primary assay. Each of the known genes in the GPI pathway were overexpressed by cloning the gene under the control of its endogenous promoter in 2 micron (multi-copy) vectors. This is a rapid and very powerful assay, but has certain limitations. For example, with a number of hits, precipitation of the compound can be observed when spotted onto plates. […] In such cases, the ability to detect increased resistance in the shoulder region is limited by the small zone size. […] Therefore, the OER assay, while very powerful and rapid, may be limiting when working with compounds that are weakly AF.
Studies on a natural compound, CJ-19089 (also known as YW3548, a terpenoid lactone) have documented that this compound targets the MCD4 catalyzed step in the GPI-anchor biosynthesis pathway. […] This inhibitor has proven to be a very valuable tool for examining the pathway and establishing standards for chromatographic analysis. […] CJ-19089 was used as a positive control in each assay and was used in comparison to untreated samples for assay development.

wild type yeast strain = assay: SDS hypersensitivity assay; type: cell-based; conditions: SDS in the growth media
From the text: Published data on a mcd4 mutant strain have shown that it has a number of characteristic phenotypes including increased sensitivity to SDS, an osmotic destabilizing detergent. The presence of as little as 0.004% SDS in the growth media leads to increased sensitivity of a wild type yeast strain to GPI-anchor inhibitors and thereby allows for the rapid screening of analogs. Again, this is a potentially information-rich assay but is subject to the same technical limitations discussed above for the OER assay.

## tunicamycin
UPR pathway
  lacZ reporter gene transcription (UPR-pathway stimulation): over transcribed

## C=C1[C@@H]2C[C@@H]3[C@H](C(C)C)[C@@H](OC(=O)CC(C)(O)CC(C)CC)C[C@@]3(C)C[C@H]2/C(C)=C\C[C@@H]2[C@@H](C)OC(=O)[C@H](O)[C@]12O (some centres unmarked) [CJ-19089]
[1]
  incorporation of [3H]myo-inositol into proteins: prevents the incorporation of [^3H]myo-inositol into proteins
  step of GPI anchor biosynthesis blocked: specifically blocks the addition of the third mannose to the intermediate structure Man2-GlcN-acylPI
  toxicity: toxic
  transport of GPI-anchored proteins to the Golgi apparatus: prevents transport of GPI-anchored proteins to the Golgi apparatus
GPI anchor biosynthesis
  accumulation of CJ-lipid: the CJ-lipid can be visualized
Mcd4p
  cellular target: the target of this compound is Mcd4p

## OC(Cn1cncn1)(Cn1cncn1)c1ccc(F)cc1F [fluconazole]
Wild type yeast strain
  result on SDS plates: unambiguous positive result
